The results in this text go back to patent US6861230B1, “Antibiotic sensitivity testing” (priority 1998, dated 2005).

Assay [1] has as its system E. coli 10243 (sensitive, untransformed). Put plainly: Adenylate kinase release (cell lysis) assay with antibiotic and phage 10359, sensitive strain. The assay is classed as cell-based, Escherichia coli. The procedure: For example, in one embodiment, a sample of bacterial cells is divided into first and second samples. The first sample of bacterial cells is mixed with a solution containing ADP and a detergent in the presence of magnesium ions. This extracts the adenylate kinase from all the cells present in the sample, thus allowing the ATP generating reaction to occur. The reaction is allowed to proceed for the required time e.g. 5 minutes, after which bioluminescence reagent is added and the resulting light measured in a luminometer. An assay performed in this way determines the total amount of adenylate kinase in a sample, be it extracellular or intracellular.
The second sample is subjected to a similar assay but in the absence of detergent so that only extracellular adenylate kinase is measured. […]

In assay [2] the test system is E. coli 10243 carrying plasmid encoding ampicillin resistance (pUC18). The assay can be described thus: Adenylate kinase release (cell lysis) assay with antibiotic and phage 10359, ampicillin-resistant strain. The assay is classed as cell-based, Escherichia coli. The note with it: log phase, 10^5 phage 10359 at T0, 50 μg/ml ampicillin at T5. The method, then:
A plasmid encoding ampicillin resistance (pUC18) was introduced into a pure culture of E. coli 10243 in order to induce resistance without altering phage host specificity.
Log phase cultures of both resistant and sensitive strains of E. coli 10243 were infected with 10^5 phage 10359 at T0 and 50 μg/ml ampicillin at T5.

Take `O=C(N[C@H](CO)[C@H](O)c1ccc([N+](=O)[O-])cc1)C(Cl)Cl` [chloramphenicol]: the “Degree of phage mediated lysis in cultures containing the antibiotic” value in assay [1] (phage 10359 plus chloramphenicol 34 μg/ml versus phage only, 80 min) is reported as “considerably less”. The “Cell lysis with both bacteriophage and chloramphenicol compared with chloramphenicol alone” value in assay [1] (phage 10359 plus chloramphenicol 34 μg/ml, 80 min) is listed as “Greater cell lysis”.
`CC1(C)S[C@@H]2[C@H](NC(=O)[C@H](N)c3ccccc3)C(=O)N2[C@H]1C(=O)O` [ampicillin]: the “Cell lysis due to ampicillin (adenylate kinase release)” value in assay [1] (sensitive strain, log phase, 10^5 phage 10359 at T0, 50 μg/ml ampicillin at T5, time in min) was “evident at T10 and significant at T20”. The “Effect of the antibiotic on the resistant strain (adenylate kinase release)” value in assay [2] is recorded as “unaffected by the antibiotic”.
